In the supplement of paper PMC10307832:

Experiments:
Experiment in all cases: relative viability (nuclei count vs DMSO), 5 days (fraction); higher = more cells survive
RERF-LC-KJ = tested on: RERF-LC-KJ
Outline: (§1)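 Values are medians from duplicate plates. Each reflects relative viability, defined as the nuclei count of treated wells over that of vehicle wells. Lung cancer cell lines in 1536-well plates were pin-tool dosed one day after seeding with one drug alone or with a fixed anchor-drug dose plus five library-drug doses (not always all listed) in √10 steps, then fixed, stained and imaged at 4× after 5 days.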

EBC-1 = tested on: EBC-1
Outline: as §1

NCI-H520 = tested on: NCI-H520
Outline: as §1

NCI-H1651 = tested on: NCI-H1651
Outline: as §1

Calu-6 = tested on: Calu-6
Outline: as §1

A549 = tested on: A549
Outline: as §1

IA-LM = tested on: IA-LM
Outline: as §1

NCI-H1299 = tested on: NCI-H1299
Outline: as §1

NCI-H1703 = tested on: NCI-H1703
Outline: as §1

Structure (SMILES)	relative viability (RERF-LC-KJ; first compound 0.08 µM)	relative viability (RERF-LC-KJ; first compound 0.253 µM)	relative viability (RERF-LC-KJ; first compound 0.8 µM)	relative viability (RERF-LC-KJ; first compound 2.53 µM)	relative viability (EBC-1; first compound 0.08 µM)	relative viability (EBC-1; first compound 0.253 µM)	relative viability (EBC-1; first compound 0.8 µM)	relative viability (EBC-1; first compound 2.53 µM)	relative viability (NCI-H520; first compound 0.08 µM)	relative viability (NCI-H520; first compound 0.253 µM)	relative viability (NCI-H520; first compound 0.8 µM)	relative viability (NCI-H520; first compound 2.53 µM)	relative viability (NCI-H1651; first compound 0.08 µM)	relative viability (NCI-H1651; first compound 0.253 µM)	relative viability (NCI-H1651; first compound 0.8 µM)	relative viability (NCI-H1651; first compound 2.53 µM)	relative viability (Calu-6; first compound 0.08 µM)	relative viability (Calu-6; first compound 0.253 µM)	relative viability (Calu-6; first compound 0.8 µM)	relative viability (Calu-6; first compound 2.53 µM)	relative viability (A549; first compound 0.08 µM)	relative viability (A549; first compound 0.253 µM)	relative viability (A549; first compound 0.8 µM)	relative viability (A549; first compound 2.53 µM)	relative viability (IA-LM; first compound 0.08 µM)	relative viability (IA-LM; first compound 0.253 µM)	relative viability (IA-LM; first compound 0.8 µM)	relative viability (IA-LM; first compound 2.53 µM)	relative viability (NCI-H1299; first compound 0.08 µM)	relative viability (NCI-H1299; first compound 0.253 µM)	relative viability (NCI-H1299; first compound 0.8 µM)	relative viability (NCI-H1299; first compound 2.53 µM)	relative viability (NCI-H1703; first compound 0.08 µM)	relative viability (NCI-H1703; first compound 0.253 µM)	relative viability (NCI-H1703; first compound 0.8 µM)	relative viability (NCI-H1703; first compound 2.53 µM)
Oc1nc(-c2ccc(C(F)(F)F)cc2)nc2c1CSCC2 [XAV939] + C[C@@H](Oc1cc(-c2cnn(C3CCNCC3)c2)cnc1N)c1c(Cl)ccc(F)c1Cl [Crizotinib] (partner 1 µM)	0.807	0.82	0.741	0.582	0.213	0.223	0.165	0.182	0.778	0.665	0.668	0.68	0.988	0.798	0.857	0.856	0.822	0.719	0.7	0.758	1.07	0.713	0.693	0.633	0.792	0.876	0.398	0.444	0.94	0.978	0.956	0.958	0.787	0.621	0.77	0.583
Oc1nc(-c2ccc(C(F)(F)F)cc2)nc2c1CSCC2 [XAV939] + C[C@]1(O)C[C@@H](c2nc(-c3ccc4ccc(-c5ccccc5)nc4c3)c3c(N)nccn32)C1 [Linsitinib] (partner 1 µM)	0.881	0.765	0.789	0.661	1.02	0.832	0.809	0.754	0.983	0.974	0.833	0.775	1.01	0.799	0.915	0.875	0.981	1.04	0.953	0.856	0.696	0.526	0.486	0.51	0.565	0.512	0.505	0.458	1.03	0.878	0.948	0.948	1.31	1.02	0.969	0.584
Oc1nc(-c2ccc(C(F)(F)F)cc2)nc2c1CSCC2 [XAV939] + Cc1nc(NC(=O)N2CCC[C@H]2C(N)=O)sc1-c1ccnc(C(C)(C)C(F)(F)F)c1 [Alpelisib] (partner 2 µM)	0.702	0.708	0.768	0.735	0.874	0.71	0.716	0.726	0.842	0.755	0.916	0.648	0.979	0.841	0.978	0.891	1.08	0.887	0.919	0.948	0.877	0.371	0.484	0.524	0.77	0.693	0.705	0.557	1.08	1.04	1.09	1.11	0.397	0.301	0.307	0.324
